In patent US20250388543A1, “HETEROARYL COMPOUNDS FOR THE TREATMENT OF PAIN” (VERTEX PHARMACEUTICALS INCORPORATED, priority 2022, published 2025) one finds IC50 data, which are given here for 16 compounds.

A value given as a limit tells only on which side of the number the result lay.

Sequence of human NaV 1.8 (Q9Y5Y9 126-1722 limits assumed): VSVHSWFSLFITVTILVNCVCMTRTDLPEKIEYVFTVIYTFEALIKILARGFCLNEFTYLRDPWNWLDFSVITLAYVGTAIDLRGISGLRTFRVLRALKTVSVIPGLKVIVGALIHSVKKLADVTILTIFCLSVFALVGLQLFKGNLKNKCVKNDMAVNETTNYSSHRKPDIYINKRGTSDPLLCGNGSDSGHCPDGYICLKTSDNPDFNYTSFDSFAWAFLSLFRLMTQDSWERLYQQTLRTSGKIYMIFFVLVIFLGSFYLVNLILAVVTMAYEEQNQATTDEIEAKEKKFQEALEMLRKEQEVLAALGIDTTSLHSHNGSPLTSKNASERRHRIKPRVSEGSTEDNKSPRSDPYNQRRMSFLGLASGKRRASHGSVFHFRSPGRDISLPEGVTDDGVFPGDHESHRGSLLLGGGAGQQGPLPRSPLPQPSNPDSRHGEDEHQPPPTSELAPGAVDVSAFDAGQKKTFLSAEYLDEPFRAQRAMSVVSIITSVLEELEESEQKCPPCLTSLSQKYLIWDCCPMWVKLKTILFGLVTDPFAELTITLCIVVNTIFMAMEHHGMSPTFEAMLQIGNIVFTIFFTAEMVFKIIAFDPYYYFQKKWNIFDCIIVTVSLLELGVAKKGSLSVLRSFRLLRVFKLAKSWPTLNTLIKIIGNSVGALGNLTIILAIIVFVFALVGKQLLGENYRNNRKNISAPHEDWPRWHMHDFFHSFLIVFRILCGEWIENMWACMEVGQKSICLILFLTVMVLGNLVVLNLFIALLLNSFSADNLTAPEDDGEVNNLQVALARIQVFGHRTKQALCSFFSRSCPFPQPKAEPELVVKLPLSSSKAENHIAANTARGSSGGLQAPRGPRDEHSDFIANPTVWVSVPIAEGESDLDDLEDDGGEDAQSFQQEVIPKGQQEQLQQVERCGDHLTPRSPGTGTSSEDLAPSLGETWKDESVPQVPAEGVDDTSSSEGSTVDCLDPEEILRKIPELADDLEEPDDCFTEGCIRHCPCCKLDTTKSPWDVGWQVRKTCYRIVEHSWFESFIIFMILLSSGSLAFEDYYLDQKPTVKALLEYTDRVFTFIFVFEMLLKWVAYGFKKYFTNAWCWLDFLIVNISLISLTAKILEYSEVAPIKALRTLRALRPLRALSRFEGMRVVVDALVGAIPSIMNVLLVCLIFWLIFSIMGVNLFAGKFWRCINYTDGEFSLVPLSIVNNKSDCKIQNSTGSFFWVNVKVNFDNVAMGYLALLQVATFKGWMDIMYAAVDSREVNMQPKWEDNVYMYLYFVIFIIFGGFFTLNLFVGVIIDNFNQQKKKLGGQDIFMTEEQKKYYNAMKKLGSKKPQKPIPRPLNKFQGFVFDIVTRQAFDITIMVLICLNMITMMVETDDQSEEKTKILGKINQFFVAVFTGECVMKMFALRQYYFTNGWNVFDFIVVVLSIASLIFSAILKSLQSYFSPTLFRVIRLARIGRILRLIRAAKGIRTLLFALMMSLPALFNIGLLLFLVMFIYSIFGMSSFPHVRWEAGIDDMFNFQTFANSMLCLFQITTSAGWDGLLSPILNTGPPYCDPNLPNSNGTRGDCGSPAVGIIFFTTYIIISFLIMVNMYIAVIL

This assay has as its target human NaV 1.8 (Homo sapiens, UniProt Q9Y5Y9). In words: E-VIPR Assay Detecting and Measuring NaV Inhibition Properties. It counts as cell-based. Conditions: HEK cells expressing a truncated form of human NaV 1.8 with full channel activity; electrical stimulation, membrane-potential FRET dyes; 30 minutes compound incubation; read-out: measured IC50 value in the E-VIPR Assay. From the text:
E-VIPR Assay Detecting and Measuring NaV Inhibition Properties
Sodium ion channels are voltage-dependent proteins that can be activated by inducing membrane voltage changes by applying electric fields. The electrical stimulation instrument and methods of use, referred to as E-VIPR, are described in International Publication No. WO 2002/008748 A3 and C.-J. Huang et al. Characterization of voltage-gated sodium channel blockers by electrical stimulation and fluorescence detection of membrane potential, 24 Nature Biotech. 439-46 (2006), both of which are incorporated by reference in their entirety. The instrument comprises a microtiter plate handler, an optical system for exciting the coumarin dye while simultaneously recording the coumarin and oxonol emissions, a waveform generator, a current- or voltage-controlled amplifier, and parallel electrode pairs that are inserted into assay plate wells. Under integrated computer control, this instrument passes user-programmed electrical stimulus protocols to cells within the wells of the microtiter plate.
16-20 hours prior to running the assay on E-VIPR, HEK cells expressing a truncated form of human NaV 1.8 with full channel activity were seeded into microtiter 384-well plates, pre-coated with matrigel, at a density of 25,000 cells per well. 2.5-5% KIR2.1 BacMam virus was added to the final cell suspension before seeding into cell plates. HEK cells were grown in Dulbecco's Modified Eagle's Medium (DMEM) supplemented with 10% FBS (Fetal Bovine Serum, qualified; Sigma #F4135), 1% NEAA (Non-Essential Amino Acids, Gibco #11140), 1% HEPES (Gibco #15630), 1% Pen-Strep (Penicillin-Streptomycin; Gibco #15140) and 5 μg/ml Blasticidin (Gibco #R210-01). Cells were expanded in 5-layer CellSTACK culture chambers or cell culture flasks with vented caps, with 90-95% humidity and 5% CO2.
Reagents and Stock Solutions:
100 mg/mL Pluronic F-127 (Sigma #P2443), in dry DMSO
Compound Plates: Corning 384-well Polypropylene Round Bottom #3656
Cell Plates: 384-well tissue culture treated plates (Greiner #781091-2B)
2.5-5% KIR 2.1 Bacmam virus (produced in-house), prepared as described in Section 3.3 of J. A. Fornwald et al., Gene Expression in Mammalian Cells Using BacMam, a Modified Baculovirus System, 1350 Methods in Molecular Biology 95-116 (2016), the entire contents of which are incorporated by reference. The concentration used can be dependent on viral titer of each batch.
5 mM DiSBAC6(3), a voltage sensitive oxonol acceptor (CAS number 169211-44-3; 5-[3-(1,3-dihexylhexahydro-4,6-dioxo-2-thioxo-5-pyrimidinyl)-2-propen-1-ylidene]-1,3-dihexyldihydro-2-thioxo-4,6(1H,5H)-pyrimidinedione), in dry DMSO. The preparation of DiSBAC6(3) is analogous to that of DiSBAC4(3) as described in Voltage Sensing by Fluorescence Resonance Energy Transfer in Single Cells, Gonzalez, J. E. and Tsien, R. Y. (1995) Biophys. J. 69, 1272-1280.
5 mM CC2-DMPE, a commercially available membrane-bound coumarin phospholipid FRET donor (ThermoFisher Scientific catalog number K1017, CAS number 393782-57-5; tetradecanoic acid, 1,1′-[(1R)-1-[8-(6-chloro-7-hydroxy-2-oxo-2H-1-benzopyran-3-yl)-3-hydroxy-3-oxido-8-oxo-2,4-dioxa-7-aza-3-phosphaoct-1-yl]-1,2-ethanediyl]ester) was prepared in dry DMSO. See also, Improved indicators of cell membrane potential that use fluorescence resonance energy transfer, Gonzalez, J. E. and Tsien, R. Y. (1997) Chem. Biol. 4, 269-277.
Voltage Assay Background Suppression Compound (VABSC-1) is prepared in H2O (89-363 mM, range used to maintain solubility)
Human Serum (HS, Millipore #S1P1-01KL, or Sigma SLBR5469V and SLBR5470V as a 50%/50% mixture, for 25% assay final concentration)
Sodium Chloride 160 mM (9.35 g/L), Potassium Chloride, 4.5 mM (0.335 g/L), Glucose 10 mM (1.8 g/L), Magnesium Chloride (Anhydrous) 1 mM (0.095 g/L), Calcium Chloride 2 mM (0.222 g/L), HEPES 10 mM (2.38 g/L) in water. […]
As for `Cc1cc(=O)[nH]c(-c2nc(C(F)(F)F)ccc2N2CCCC(F)(F)CC2)n1` [Compound 252, 2-[3-(4,4-difluoroazepan-1-yl)-6-(trifluoromethyl)-2-pyridyl]-4-methyl-1H-pyrimidin-6-one], the IC50 is ≥ 5 µM. Under `CO[C@@H]1CN(c2nc3ccccc3cc2-c2cc(=O)cc(C)[nH]2)C[C@@H]1C` [Compound 253, 2-[2-[(3S,4S)-3-methoxy-4-methyl-pyrrolidin-1-yl]-3-quinolyl]-6-methyl-1H-pyridin-4-one] stands 0.5 to 2 µM; under `COc1cc(F)ccc1Oc1cc(C(C)(C)C)cc(C)c1-c1cc(=O)cc(C(O)CO)[nH]1` (stereo not shown) [Compound 274, 2-[4-tert-butyl-2-(4-fluoro-2-methoxy-phenoxy)-6-methyl-phenyl]-6-(1,2-dihydroxyethyl)-1H-pyridin-4-one], ≥ 5 µM; under `COc1c(Oc2cnc(C(F)(F)F)cc2-c2[nH]c(C)c(C)c(=O)c2C(=O)O)ccc(F)c1F` [Compound 280, 2-[5-(3,4-difluoro-2-methoxy-phenoxy)-2-(trifluoromethyl)-4-pyridyl]-5,6-dimethyl-4-oxo-1H-pyridine-3-carboxylic acid], 0.5 to 2 µM. In the case of `Cc1cc(-c2[nH]c(C)c(C)c(=O)c2C(=O)O)c(N2CCCC(F)(F)CC2)nc1C(F)(F)F` [Compound 284, 2-[2-(4,4-difluoroazepan-1-yl)-5-methyl-6-(trifluoromethyl)-3-pyridyl]-5,6-dimethyl-4-oxo-1H-pyridine-3-carboxylic acid], the IC50 lay in the range of 0.5 to 2 µM.

Turning to `COc1cc(F)ccc1Oc1cc(C(C)(C)C)cc(C)c1-c1cc(=O)c(C(=O)N(C)C)c(C)[nH]1` [Compound 289, 6-[4-tert-butyl-2-(4-fluoro-2-methoxy-phenoxy)-6-methyl-phenyl]-N,N,2-trimethyl-4-oxo-1H-pyridine-3-carboxamide], the IC50 is 0.5 to 2 µM. In the case of `COC(=O)c1c(-c2cc(C(F)(F)F)ncc2N2CCCC(F)(F)CC2)[nH]c(C)c(C)c1=O` [Compound 297, methyl 2-[5-(4,4-difluoroazepan-1-yl)-2-(trifluoromethyl)-4-pyridyl]-5,6-dimethyl-4-oxo-1H-pyridine-3-carboxylate], the IC50 was 2 to 5 µM. Under `Cc1c(Oc2ncc(C(F)(F)F)c(C)c2-c2cc(=O)c(C(N)=O)c[nH]2)ccc(F)c1F` [Compound 310, 6-[2-(3,4-difluoro-2-methyl-phenoxy)-4-methyl-5-(trifluoromethyl)-3-pyridyl]-4-oxo-1H-pyridine-3-carboxamide] stands 0.5 to 2 µM; under `Cc1cc(=O)cc(-c2c(C(F)(F)F)ccnc2N2CCCC(F)(F)CC2)[nH]1` [Compound 318, 2-[2-(4,4-difluoroazepan-1-yl)-4-(trifluoromethyl)-3-pyridyl]-6-methyl-1H-pyridin-4-one], ≥ 5 µM. With `Cc1cc(=O)cc(-c2c(C(F)(F)F)ccnc2N2CCC(F)(F)CC2)[nH]1` [Compound 319, 2-[2-(4,4-difluoro-1-piperidyl)-4-(trifluoromethyl)-3-pyridyl]-6-methyl-1H-pyridin-4-one], the IC50 was ≥ 5 µM. To `Cc1cnc(N2CCCC(F)(F)CC2)c(-c2cc(=O)cc(C)[nH]2)c1` [Compound 320, 2-[2-(4,4-difluoroazepan-1-yl)-5-methyl-3-pyridyl]-6-methyl-1H-pyridin-4-one] belongs 2 to 5 µM; to `Cc1cc(=O)cc(-c2cc(C(F)(F)F)ncc2C2CCC(C(F)(F)F)CC2)[nH]1` (stereo not shown) [Compound 321, 2-methyl-6-[2-(trifluoromethyl)-5-[4-(trifluoromethyl)cyclohexyl]-4-pyridyl]-1H-pyridin-4-one], ≥ 5 µM. To `Cc1cc(=O)cc(-c2cc(C(F)(F)F)ncc2C2CCC(C(F)(F)F)CC2)[nH]1` (stereo not shown) [Compound 322, 2-methyl-6-[2-(trifluoromethyl)-5-[4-(trifluoromethyl)cyclohexyl]-4-pyridyl]-1H-pyridin-4-one] belongs 2 to 5 µM; to `Cc1cc(=O)cc(-c2ccc(C(F)(F)F)cc2C2(O)CCC(F)(F)CC2)[nH]1` [Compound 323, 2-[2-(4,4-difluoro-1-hydroxy-cyclohexyl)-4-(trifluoromethyl)phenyl]-6-methyl-1H-pyridin-4-one], ≥ 5 µM; to `Cc1cc(=O)cc(-c2ccc(C(F)(F)F)cc2C2=CCC(F)(F)CC2)[nH]1` [Compound 324, 2-[2-(4,4-difluorocyclohexen-1-yl)-4-(trifluoromethyl)phenyl]-6-methyl-1H-pyridin-4-one], ≥ 5 µM.

`Cc1cc(=O)cc(-c2ccc(C(F)(F)F)cc2C2CCC(F)(F)CC2)[nH]1` [Compound 325, 2-[2-(4,4-difluorocyclohexyl)-4-(trifluoromethyl)phenyl]-6-methyl-1H-pyridin-4-one]: the IC50 is 0.5 to 2 µM.

Usually IC50 stands for the concentration at which inhibition is half-maximal.
